Data as given in ChEMBL document CHEMBL3046449, “Selective Herbicidal Activities of Ethyl 5-(4, 6-Dimethoxypyrimidin-2-ylcarbamoylsulfamoyl)-1-methylpyrazole-4-carboxylate and Its Related Compounds” (J Pestic Sci, 1990).

Columns and labels:
[1] = test system: Schoenoplectiella juncoides; assay: Herbicidal activity against Schoenoplectiella juncoides assessed as weed control in transplanted rice field at 30 g/ha treated after 10 days transplanting; type: functional
Echinochloa crus-galli [2] = assay: Herbicidal activity against Echinochloa crus-galli (barnyard grass) assessed as weed control in transplanted rice field at 30 g/ha treated after 10 days transplanting; type: functional
Cyperus serotinus [3] = assay: Herbicidal activity against Cyperus serotinus assessed as weed control in transplanted rice field at 30 g/ha treated after 7 days transplanting; type: functional
[4] = Phytotoxicity against Oryza sativa (rice) assessed as growth inhibition under greenhouse at 5 g/ha measured after 18 days by preemergence activity assay; type: organism-based; details: in vivo, read-out: GI
Echinochloa crus-galli [5] = assay: Herbicidal activity against Echinochloa crus-galli (barnyard grass) assessed as growth inhibition measured after 2 days by preemergence activity assay; type: functional
Rotala indica = assay: Herbicidal activity against Rotala indica assessed as growth inhibition in paddy condition under greenhouse at 5 g/ha measured after 18 days by preemergence activity assay; type: functional; details: pre-emergence, 432 h, read-out: GI
[6] = test system: Schoenoplectiella juncoides; assay: Herbicidal activity against Schoenoplectiella juncoides assessed as growth inhibition in paddy condition under greenhouse at 5 g/ha measured after 18 days by preemergence activity assay; type: functional; details: pre-emergence, 432 h, read-out: GI
Oryza sativa [7] = assay: Effect on Oryza sativa (rice) plant growth in transplanted Oryza sativa field assessed as plant height at 20 g/ha treated after 7 days transplanting; type: organism-based; details: in vivo, other, 168 h
Oryza sativa [8] = assay: Effect on Oryza sativa (rice) plant growth in transplanted Oryza sativa field assessed as plant height at 20 g/ha treated after 3 days transplanting; type: organism-based; details: in vivo, other, 72 h
Cyperus serotinus [9] = assay: Herbicidal activity against Cyperus serotinus assessed as weed control in transplanted rice field at 30 g/ha treated after 15 days transplanting; type: functional
unidentified [10] = assay: Herbicidal activity against broadleaf weed assessed as weed control in transplanted rice field at 30 g/ha treated after 15 days transplanting; type: functional
Pontederia vaginalis [11] = assay: Herbicidal activity against Monochoria vaginalis assessed as weed control in transplanted rice field at 30 g/ha treated after 15 days transplanting; type: functional
[12] = test system: Schoenoplectiella juncoides; assay: Herbicidal activity against Schoenoplectiella juncoides assessed as weed control in transplanted rice field at 30 g/ha treated after 15 days transplanting; type: functional
Echinochloa crus-galli [13] = assay: Herbicidal activity against Echinochloa crus-galli (barnyard grass) assessed as weed control in transplanted rice field at 30 g/ha treated after 15 days transplanting; type: functional
Cyperus serotinus [14] = assay: Herbicidal activity against Cyperus serotinus assessed as weed control in transplanted rice field at 30 g/ha treated after 10 days transplanting; type: functional
unidentified [15] = assay: Herbicidal activity against broadleaf weed assessed as weed control in transplanted rice field at 30 g/ha treated after 7 days transplanting; type: functional
Pontederia vaginalis [16] = assay: Herbicidal activity against Monochoria vaginalis assessed as weed control in transplanted rice field at 30 g/ha treated after 7 days transplanting; type: functional
[17] = test system: Schoenoplectiella juncoides; assay: Herbicidal activity against Schoenoplectiella juncoides assessed as weed control in transplanted rice field at 30 g/ha treated after 7 days transplanting; type: functional
Oryza sativa [18] = assay: Effect on Oryza sativa (rice) plant growth in transplanted Oryza sativa field assessed as number of tillers at 30 g/ha treated after 15 days transplanting; type: organism-based; details: in vivo, other, 360 h
Oryza sativa [19] = assay: Effect on Oryza sativa (rice) plant growth in transplanted Oryza sativa field assessed as number of tillers at 30 g/ha treated after 7 days transplanting; type: organism-based; details: in vivo, other, 168 h
Oryza sativa [20] = assay: Effect on Oryza sativa (rice) plant growth in transplanted Oryza sativa field assessed as number of tillers at 30 g/ha treated after 3 days transplanting; type: organism-based; details: in vivo, other, 72 h
Oryza sativa [21] = assay: Effect on Oryza sativa (rice) plant growth in transplanted Oryza sativa field assessed as number of tillers at 20 g/ha treated after 7 days transplanting; type: organism-based; details: in vivo, other, 168 h
Sagittaria pygmaea [22] = assay: Herbicidal activity against Sagittaria pygmaea assessed as weed control in transplanted rice field at 20 g/ha treated after 7 days transplanting; type: functional
Pontederia vaginalis [23] = assay: Herbicidal activity against Monochoria vaginalis assessed as weed control in transplanted rice field at 20 g/ha treated after 7 days transplanting; type: functional
[24] = test system: Schoenoplectiella juncoides; assay: Herbicidal activity against Schoenoplectiella juncoides assessed as weed control in transplanted rice field at 20 g/ha treated after 7 days transplanting; type: functional
Echinochloa crus-galli [25] = assay: Herbicidal activity against Echinochloa crus-galli (barnyard grass) assessed as weed control in transplanted rice field at 20 g/ha treated after 7 days transplanting; type: functional
Cyperus serotinus [26] = assay: Herbicidal activity against Cyperus serotinus assessed as weed control in transplanted rice field at 20 g/ha treated after 3 days transplanting; type: functional
Sagittaria pygmaea [27] = assay: Herbicidal activity against Sagittaria pygmaea assessed as weed control in transplanted rice field at 20 g/ha treated after 3 days transplanting; type: functional
[28] = Herbicidal activity against broadleaf weed assessed as weed control in transplanted rice field at 20 g/ha treated after 3 days transplanting; type: functional
Pontederia vaginalis [29] = assay: Herbicidal activity against Monochoria vaginalis assessed as weed control in transplanted rice field at 20 g/ha treated after 3 days transplanting; type: functional
[30] = test system: Schoenoplectiella juncoides; assay: Herbicidal activity against Schoenoplectiella juncoides assessed as weed control in transplanted rice field at 20 g/ha treated after 3 days transplanting; type: functional
Echinochloa crus-galli [31] = assay: Herbicidal activity against Echinochloa crus-galli (barnyard grass) assessed as weed control in transplanted rice field at 20 g/ha treated after 3 days transplanting; type: functional
Eleocharis kuroguwai [32] = assay: Herbicidal activity against Eleocharis kuroguwai assessed as growth inhibition treated 7 to 15 days after planting measured by post-emergence activity assay; type: functional
Sagittaria pygmaea [33] = assay: Herbicidal activity against two-leaf stage Sagittaria pygmaea assessed as growth inhibition treated 7 to 15 days after planting measured by post-emergence activity assay; type: functional
Cyperus serotinus [34] = assay: Herbicidal activity against three to four-leaf stage Cyperus serotinus assessed as growth inhibition treated 7 to 15 days after planting measured by postemergence activity assay; type: functional
Alisma canaliculatum [35] = assay: Herbicidal activity against three to four-leaf stage Alisma canaliculatum assessed as growth inhibition treated 7 to 15 days after planting measured by post-emergence activity assay; type: functional
Pontederia vaginalis [36] = assay: Herbicidal activity against three to five-leaf stage Monochoria vaginalis assessed as growth inhibition treated 7 to 15 days after planting measured by postemergence activity assay; type: functional
Eleocharis kuroguwai [37] = assay: Herbicidal activity against Eleocharis kuroguwai assessed as growth inhibition measured after 2 days by pre-emergence activity assay; type: functional
Echinochloa crus-galli [38] = assay: Herbicidal activity against 1.5 leaf stage Echinochloa crus-galli (barnyard grass) assessed as growth inhibition treated 7 to 15 days after planting measured by postemergence activity assay; type: functional
Sagittaria pygmaea [39] = assay: Herbicidal activity against Sagittaria pygmaea assessed as growth inhibition measured after 2 days by pre-emergence activity assay; type: functional
Alisma canaliculatum [40] = assay: Herbicidal activity against Alisma canaliculatum assessed as growth inhibition measured after 2 days by pre-emergence activity assay; type: functional
Echinochloa crus-galli [41] = assay: Herbicidal activity against Echinochloa crus-galli (barnyard grass) assessed as weed control in transplanted rice field at 30 g/ha treated after 7 days transplanting; type: functional
Sagittaria pygmaea [42] = assay: Herbicidal activity against Sagittaria pygmaea assessed as weed control in transplanted rice field at 30 g/ha treated after 3 days transplanting; type: functional
unidentified [43] = assay: Herbicidal activity against broadleaf weed assessed as weed control in transplanted rice field at 30 g/ha treated after 3 days transplanting; type: functional
Cyperus serotinus [44] = assay: Herbicidal activity against Cyperus serotinus assessed as weed control in transplanted rice field at 20 g/ha treated after 7 days transplanting; type: functional

CCOC(=O)c1cnn(C)c1S(=O)(=O)NC(=O)Nc1nc(OC)cc(OC)n1 [PYRAZOSULFURON ETHYL]
Activity [1]: 93% | Activity (Echinochloa crus-galli [2]): 90% | Activity (Cyperus serotinus [3]): 100% | inhibition at 432 h [4]: < 5% | I75 (Echinochloa crus-galli [5]): 13 gAi/ha | inhibition of growth at 5 g/ha (Rotala indica): > 90% | inhibition of growth at 5 g/ha [6]: > 90% | Activity (Oryza sativa [7]): 107% | Activity (Oryza sativa [8]): 104% | Activity (Cyperus serotinus [9]): 97% | Activity (unidentified [10]): 100% | Activity (Pontederia vaginalis [11]): 97% | Activity [12]: 97% | Activity (Echinochloa crus-galli [13]): 85% | Activity (Cyperus serotinus [14]): 97% | Activity (unidentified [15]): 100% | Activity (Pontederia vaginalis [16]): 100% | Activity [17]: 100% | Activity (Oryza sativa [18]): 105% | Activity (Oryza sativa [19]): 100% | Activity (Oryza sativa [20]): 99% | Activity (Oryza sativa [21]): 96% | Activity (Sagittaria pygmaea [22]): 98% | Activity (Pontederia vaginalis [23]): 100% | Activity [24]: 100% | Activity (Echinochloa crus-galli [25]): 98% | Activity (Cyperus serotinus [26]): 98% | Activity (Sagittaria pygmaea [27]): 95% | Activity [28]: 100% | Activity (Pontederia vaginalis [29]): 100% | Activity [30]: 97% | Activity (Echinochloa crus-galli [31]): 98% | I75 (Eleocharis kuroguwai [32]): 7.4 gAi/ha | I75 (Sagittaria pygmaea [33]): 2.7 gAi/ha | I75 (Cyperus serotinus [34]): 1.9 gAi/ha | I75 (Alisma canaliculatum [35]): 1.4 gAi/ha | I75 (Pontederia vaginalis [36]): 2.7 gAi/ha | I75 (Eleocharis kuroguwai [37]): 1.9 gAi/ha | I75 (Echinochloa crus-galli [38]): 18 gAi/ha | I75 (Sagittaria pygmaea [39]): 1.9 gAi/ha | I75 (Alisma canaliculatum [40]): 2.1 gAi/ha | Activity (Echinochloa crus-galli [41]): 98% | Activity (Sagittaria pygmaea [42]): 97% | Activity (unidentified [43]): 100% | Activity (Cyperus serotinus [44]): 100%
